melting point [°C] | SMILES
162 to 164 | CCOCc1nc2c(N)nc3ccccc3c2n1NC(C)C
138 to 139 | CCOc1cc(N(CC)CC)ccc1-c1nc2n(C3CCCC3)[nH]c(CC)c-2c(=O)n1
97 to 98.5 | Cc1ccc(N2CSC(=NCc3ccc(C(F)(F)F)cc3)N(CC(F)(F)F)C2=O)cc1
50 to 51 | O=C(CCCCOc1ccccc1)C(F)(F)F
142 | COc1ccccc1N1CCN(C(=O)[C@@H](Cc2cccnc2)NC(=O)OC(C)(C)C)CC1
174 | O=C(O)CCCc1cc2nc(Cl)ccc2n1S(=O)(=O)c1cccc(Cl)c1
103 | COc1ccc(Cl)c(Oc2c(CO)nc(N3CCOCC3)nc2NS(=O)(=O)c2ccc(C(C)(C)C)cc2)c1
198 | CCCC1(CC(=O)OC)CCCc2c1[nH]c1cc(Br)ccc21 (stereo not given)
69 to 71 | COC(=O)CC(C#N)c1ccc(OC)c(OC2CCCC2)c1 (stereo not given)
128 to 130 | Cc1cccc(-n2nc(C)cc2-c2ccnc(C#N)c2)c1
88 | Cc1ccc(Cn2nc(CCl)cc2-c2ccc(Cl)c(Cl)c2)cc1Cl
159 to 160 | CC1(C)OC=C(CS(=O)(=O)c2ccc(F)cc2)C1=O
225 | CC(=O)c1nc2cc(C(F)(F)F)c(Cl)cc2n1-c1ccc(CCNC(=O)NS(=O)(=O)c2ccc(C)cc2)cc1
125 to 127 | CONC(=O)c1nsc2ccc(-n3c(=O)cc(C(F)(F)F)n(C)c3=O)cc12
164 to 168 | CCOC(=O)/C=C/c1cc(-c2ccccc2)n(-c2ccc(S(C)(=O)=O)cc2)n1
65 to 115 | CC(=O)N(O)Cc1ccc2c(c1)OCc1ccccc1C2=O
122 to 124 | CCOC(=O)c1ccc(NC(=O)C=C(c2ccccc2)c2ccc(C)cc2)cc1
268 to 270 | Cc1nc2c3c(c(C(=O)NCC(O)CO)cc2n1C)CCC(c1ccccc1)O3 (stereo not given)
130 to 132 | COC(=O)c1ccc(Br)c(O)c1
144 | COC(=O)c1ccc(C(=O)N2CCN(c3ncccc3N)CC2)cc1
89 to 90 | CCOC(=O)C(NC(=O)Cc1ccc(N)cn1)C(=O)OCC
181 to 182 | O=C(NCc1ccccc1O)[C@@H]1CCCN(c2cccc3c2C(=O)N(Cc2ccncc2)C3=O)C1
210 to 213 | CSc1nc(NC(=O)C2([N+](=O)[O-])C=CC=CC2S(N)(=O)=O)nn1C (stereo not given)
109 to 111 | O=C(NCc1cccs1)c1ccccc1C(c1ccc(O)cc1)c1ccc(O)cc1

melting point [°C] | SMILES
42 to 45 | COC(=O)c1c(OC(C)C)c(Br)c(Br)n1C
130 to 131 | CCOc1ccnc(F)c1NC(=O)OC(C)(C)C
204 | Cn1cc(C#N)c(Nc2ccc([N+](=O)[O-])cc2N)n1
245 to 246 | COc1ccccc1C1(O)C(=O)Nc2cc(Cl)c(Cl)cc21 (stereo not given)
277 to 280 | CC12CCC3(CC1CCC1C2CCC2(C)C1CC(O)C2NC=O)OCCO3 (stereo not given)
131 | O=C(O)Cc1cc(C(=O)c2ccccc2)cc(Cl)c1O
168 to 170 | O=C(O)CCC(=O)NC1CCCCC1
110 | Cc1cc(-n2ccnc2)c2cccc(OCc3c(Cl)ccc(S(=O)(=O)N4CCC[C@H]4C(N)=O)c3Cl)c2n1
192 to 194 | CC(C)(C#N)Cc1ccc(CC(C)(C)C#N)cc1
> 250 | O=C(O)c1ccc(-c2nc3cc(Cl)c(Cl)cc3[nH]2)cc1
146 to 150 | CC1(C(=O)O)CCc2c(C(=O)c3ccc(Cl)cc3)cccc21 (stereo not given)
108 to 110 | CC(C)(C)Oc1ccc2c(c1)Oc1ccccc1S2(=O)=O
126 to 127 | Nc1ccc(-c2ncc(C(F)(F)F)cc2Cl)cc1[N+](=O)[O-]
169 to 171 | CC(C)c1cc(C(=O)Nc2ccc(C(=O)O)o2)oc1C(C)C
46.5 to 47.5 | O=C1C2CCCN2S(=O)(=O)N1CCl (stereo not given)
196 to 197 | Cc1ccc(C(=O)Nc2c[nH]nc2C(=O)NCCC(F)(F)F)cn1
55.6 | CCOC(=O)C(Sc1ccc(O)cc1)c1ccc(Br)cc1 (stereo not given)
186 to 190 | CC1CS/C(=N/N=C\c2ccc(-c3ncn(-c4ccc(OC(F)(F)F)cc4)n3)cc2)N(c2ccccc2C(C)C)C1 (stereo not given)
68.7 | Cc1ncc(C(=O)N2CCCCC2)s1
161 to 163 | CC1=C(N)C(C)C2CC(C)(CC3=CCN(c4ccc(-n5ccnc5)cc4)CC3)OC2=C1C (stereo not given)
109 to 110 | N#CC12CCCC(C1)C1CCC2C1 (stereo not given)
> 250 | COCCNc1ncc(-c2cnc3[nH]c(=O)n(CC4CCCCC4)c3n2)cn1
103 to 104 | CCOC(=O)c1cc2c(C)ccc3c2n1CCC3=O
79 to 81 | CC(C)OC1C=CC(=O)N1 (stereo not given)

melting point [°C] | SMILES
145 to 146 | CCOC(=O)Nc1ccc2c(c1)CCSCC2=O
154 to 155 | Cc1ccc(/C=C/c2nc(COc3ccc(CCCCn4ccnn4)cc3)co2)cc1
153 to 154 | COCCOc1ccccc1-c1cc(Nc2cccc(S(C)(=O)=O)c2)ncn1
184 to 185 | O=[N+]([O-])c1ccc(Br)cc1-c1cc(-c2ccc(Br)cc2)on1
81 to 82 | COc1cc2c(cc1Cl)CCNC[C@H]2c1ccccc1
203 to 204 | CCCc1c(C(=O)NCc2ccc3cc(OCC(=O)O)ccc3c2)cnn1-c1ccc(Cl)cc1
143 to 144 | COCCOc1c(F)c(Oc2ccc(S(C)(=O)=O)nc2)cc2cc(C3=NCC(CC(N)=O)S3)[nH]c12 (stereo not given)
217 to 218 | Cc1cc(C(=O)O)ccc1NC(=O)C(CS)Cc1ccccc1 (stereo not given)
117 | Clc1ccc(C2(Cn3cncn3)OCCO2)s1
201 | Cc1cc(Nc2ccnc(Nc3ccc(S(=O)(=O)N4CCC(CNCCC(=O)N(C)C)CC4)cc3)n2)ccc1F
87 to 89 | Oc1ccc2c(c1)OCC(c1cccc(C(F)(F)F)c1)C2c1ccc(OCCN2CCCC2)cc1 (stereo not given)
134 to 136 | COc1ccc2c(c1)c(CN(O)C(=O)CCC(=O)O)c(C)n2C(=O)c1ccc(Cl)cc1
258 to 260 | NCc1nc(-c2ccc(-c3cnc4[nH]c(=O)n(CCC5CCOCC5)c4n3)cc2)n[nH]1
144 to 149 | CCOC(=O)C1CCC(C(=O)OCC)N1C(=O)C(N)Cc1c[nH]c2ccccc12 (stereo not given)
113 to 115 | C#CCOc1cc(NC(=O)C2NCC3CC32)c(F)cc1Cl (stereo not given)
133 to 135 | Cc1ccc(O)c(F)n1
158 to 160 | CON(CCCCn1c(C)nc2c(N)nc3ccccc3c21)C(N)=O
84 to 87 | CC(=O)c1ccc(-c2cccc(-c3nc(C(C)C)[nH]c3-c3cccc(C)n3)c2)cc1
83 to 84 | CCOC(=O)c1cc2c(nc1COc1ccc(C=O)cc1)CCCCC2
197 to 198 | Nc1cc(Oc2ccc(NC(=O)Nc3ccc(Cl)c(C(F)(F)F)c3)cc2)ncn1
70 to 71 | CSC[C@@H](NC(=O)OCc1ccccc1)[C@@H]1COC(C)(C)O1
> 360 | CCOC(=O)c1ccc2c(c1)ncn2-c1cc(Cl)ccc1O
252 to 253 | O=C(O)c1ccc(C(=O)Nc2cc3c4c(c2)CCCC4CCC3)nc1
136 to 137 | CC(=O)c1cccc(NC(=O)C2CC2)c1

melting point [°C] | SMILES
122 to 125 | Cc1nc(-c2ccccc2)cc(-c2cccc(C=O)c2)c1C(=O)NCCN1CCOCC1
162 to 165 | Nc1c(Br)cc(C2=NNC(=O)Cc3cc4c(cc32)OCO4)cc1Br
148 to 149 | CC(CC(F)(F)CC(C)(C)O)C1CCC2C3CC=C4CC(O)CCC4(C)C3CCC12C (stereo not given)
104 to 105 | CC(=O)CC(=O)c1cccc2[nH]ccc12
133 to 135 | COc1nc(C)c(C)nc1N(C)C(=O)N1CCN(c2cc([N+](=O)[O-])cc([N+](=O)[O-])c2)CC1
325 to 327 | COn1cc(C(=O)O)c(=O)c2cc3cc(F)c(F)cc3nc21
202 to 207 | CC1Oc2c(cc(CN3CCN(c4ccc(C(=O)NC5CC5)cc4)CC3)cc2C2CC2)NC1=O (stereo not given)
113 to 115 | O=C1Nc2ccccc2C1CCCCN1CCN(c2ccc(F)cc2)CC1 (stereo not given)
139 to 141 | CC(=O)c1ccc(CCCCCCOc2ccc(C(=O)c3cccc(C(=O)O)c3)cc2CCC(=O)O)cc1
156 to 159 | CCCCCN1C(=O)C(CCC(=O)OCC)(NC(=O)c2ccc3ccccc3c2)c2ccc(OC)cc21 (stereo not given)
89 | C=C(C)[C@@H]1CC=C(OC(=O)C2CCC(C(=O)OC3=CC[C@@H](C(=C)C)CC3)CC2)CC1 (stereo not given in full)
221 to 222 | CC(C)(C)N1C(=O)c2cnc(-c3ccccc3)nc2Nc2ccccc21
176 to 178 | CC(=O)NC[C@H]1CN(c2cc(F)c(N3CCC(Cc4nnn[nH]4)CC3)c(F)c2)C(=O)O1
139 to 140 | CCCCCS(=O)(=O)NC(=O)/C=C/c1cc(C2CC2)nn1Cc1ccc(C(F)(F)F)cc1Cl
120 to 121 | N#Cc1cn(-c2c(Cl)cc(C(F)(F)F)cc2Cl)nc1F
149 to 151 | COC(=O)CC=C1CCC2C3CCC4=CC(=O)CCC4(C)C3CCC12C (stereo not given)
120 to 122 | COC1CNCc2cc3ccccc3n21 (stereo not given)
118 to 120 | CSC(C)(C(=O)O)c1cccc(C2(c3ccccc3)OCCO2)c1 (stereo not given)
154 to 156 | Fc1cc(F)c(CN2CCNc3ncc(I)cc32)cc1F
120 | CNC(=O)[C@@H](NC(=O)[C@@H](CC(=O)OCc1ccccc1)n1ccc(-c2ccc(-c3ccc(C#N)cc3)cc2)c1)C(C)(C)C
55 to 56 | CCc1nsc(C(=O)NC(C)C)c1C(=O)OC

SMILES | melting point [°C]
CCCCCCCCCCCCCCCCOC(=O)Cl | > 230
Cc1nnc2c3ccc(Cl)cc3c(-c3ccccc3)nn12 | 236 to 238
CN(C)Cc1cnc2n1-c1ccc(Br)cc1C(c1ccccn1)=NC2 | 200 to 202
O=[N+]([O-])c1ccc(N2CCN(Cc3ccccc3)CC2)cc1 | 115 to 118
CCCC12CCC3C4CCC(=O)C=C4CCC3C1CCC2OC(=O)CCc1ccccc1 (stereo not given) | 104 to 108
[N-]=[N+]=NS(=O)(=O)c1cc(C(=O)O)cc(S(=O)(=O)N=[N+]=[N-])c1 | 181 to 183
CNC1(c2ccccc2)CCC(c2[nH]c3ccccc3c2CCc2ccncc2)CC1 (stereo not given) | 224 to 227
